Test results: patent US8779142B2, “Azabicyclo compound and salt thereof” (Taiho Pharmaceutical Co., Ltd., priority 2009, dated 2014)

What was measured:
[1] = target: human HSP90 alpha protein (HSP90 N-terminal protein, amino acids 2-236) (Homo sapiens (Human), UniProt P07900); assay: Measurement of HSP90-binding activity (AlphaScreen competitive assay, biotin-labeled geldanamycin); conditions: concentration inhibiting binding of biotin-labeled geldanamycin (40 nM) to purified HSP90 to 50% of control; read-out: HSP-binding activity IC50
[2] = test system: SK-BR-3 cells; assay: Measurement of cell growth inhibition (crystal violet staining method); format: cell-based
[3] = Homo sapiens, breast cancer SK-BR-3 cells, 72 hr culture with test substance

Row | SMILES | IC50 [1] [µM] | IC50 [2, 3] [µM] | IC50 ([2]; breast cancer SK-BR-3 cells, 72 hr culture with test substance) [µM] | IC50 ([2]; Homo sapiens, SK-BR-3, 72 h) [µM]
1 | CC(C)c1nn(-c2ccc(C(N)=O)c(N(O)C3CCCCC3)c2)c2nccc(-n3cnc(-c4cnn(Cc5ccccc5)c4)c3)c12 [Example 93, 2-(Hydroxycyclohexylamino)-4-{3-isopropyl-4-(4-(1-benzyl-1H-pyrazol-4-yl)-1H-imidazol-1-yl)-1H-pyrazolo[3,4-b]pyridin-1-yl}benzamide] | 0.32 | 0.07 | – | –
2 | CC(C)Nc1cc(-n2nc(C(F)(F)F)c3c(-n4cnc(-c5cccnc5)c4)ccnc32)ccc1C(N)=O [Example 179, 2-(Isopropylamino)-4-{4-(4-(pyridin-3-yl)-1H-imidazol-1-yl)-3-(trifluoromethyl)-1H-pyrazolo[3,4-b]pyridin-1-yl}benzamide] | 0.38 | 0.07 | – | –
3 | CC(C)c1nn(-c2ccc(C(N)=O)c(NCC(F)F)c2)c2nccc(-n3cnc(-c4cnn(C)c4)c3)c12 [Example 113, 2-(2,2-Difluoroethylamino)-4-{3-isopropyl-4-(4-(1-methyl-1H-pyrazol-4-yl)-1H-imidazol-1-yl)-1H-pyrazolo[3,4-b]pyridin-1-yl}benzamide] | 0.26 | 0.07 | – | –
4 | CC(C)c1nn(-c2ccc(C(N)=O)c(NC3CCC(O)CC3)c2)c2nccc(-n3cnc(-c4cnn(CO)c4)c3)c12 (centres unmarked) [Example 96, 2-(4-Hydroxycyclohexylamino)-4-{4-(4-(1-hydroxymethyl)-(1H-pyrazol-4-yl)-1H-imidazol-1-yl)-3-isopropyl-1H-pyrazolo[3,4-b]pyridin-1-yl}benzamide] | 0.06 | – | 0.06 | –
5 | CCc1cn(-c2ccc(C(N)=O)c(NC3CCCCC3N)c2)c2nccc(-c3cnc4ccccc4c3)c12 (centres unmarked) [Example 70, 2-(2-Aminocyclohexylamino)-4-{3-ethyl-4-(quinolin-3-yl)-1H-pyrrolo[2,3-b]pyridin-1-yl}benzamide] | 0.23 | 0.08 | – | –
6 | CC(C)c1nn(-c2ccc(C(N)=O)c(NCC(C)(C)C)c2)c2nccc(-c3cnc4ccccc4c3)c12 [Example 25, 4-{3-Isopropyl-4-(quinolin-3-yl)-1H-pyrazolo[3,4-b]pyridin-1-yl}-2-(neopentylamino)benzamide] | 1.27 | 0.07 | – | –
7 | Cn1cc(-c2cn(-c3ccnc4c3c(C(F)(F)F)nn4-c3ccc(C(N)=O)cc3Cl)cn2)cn1 [Example 153, 3-Chloro-4-{4-(4-(1-methyl-1H-pyrazol-4-yl)-1H-imidazol-1-yl)-3-(trifluoromethyl)-1H-pyrazolo[3,4-b]pyridin-1-yl}benzamide] | 0.13 | 0.24 | – | –
8 | C=C(C)c1cc(C(N)=O)ccc1-n1nc(C(F)(F)F)c2c(-n3cnc(-c4cnn(C)c4)c3)ccnc21 [Example 174, 4-{4-(4-(1-Methyl-1H-pyrazol-4-yl)-1H-imidazol-1-yl)-3-(trifluoromethyl)-1H-pyrazolo[3,4-b]pyridin-1-yl}-3-(prop-1-en-2-yl)benzamide] | 0.32 | 0.38 | – | –
9 | CCc1cc(C(N)=O)ccc1-n1nc(C(F)(F)F)c2c(-n3cnc(-c4cnn(C)c4)c3)ccnc21 [Example 155, 3-Ethyl-4-{4-(4-(1-methyl-1H-pyrazol-4-yl)-1H-imidazol-1-yl)-3-(trifluoromethyl)-1H-pyrazolo[3,4-b]pyridin-1-yl}benzamide] | 0.11 | 0.04 | – | –
10 | COc1cc(C(N)=O)ccc1-n1nc(C(C)C)c2c(-n3cnc(-c4cnn(C)c4)c3)ccnc21 [Example 128, 4-{3-Isopropyl-4-(4-(1-methyl-1H-pyrazol-4-yl)-1H-imidazol-1-yl)-1H-pyrazolo[3,4-b]pyridin-1-yl}-3-methoxybenzamide] | – | 0.15 | – | –
11 | CCc1cc(C(N)=O)ccc1-n1nc(C(C)C)c2c(-n3cnc(-c4cccnc4)c3)ccnc21 [Example 136, 3-Ethyl-4-{3-isopropyl-4-(4-(pyridin-3-yl)-1H-imidazol-1-yl)-1H-pyrazolo[3,4-b]pyridin-1-yl}benzamide] | 0.13 | 0.27 | – | –
12 | CCNc1cc(C(N)=O)ccc1-n1nc(C(F)(F)F)c2c(-n3cnc(-c4cnn(CC)c4)c3)ccnc21 [Example 185, 4-{4-(4-(1-Ethyl-1H-pyrazol-4-yl)-1H-imidazol-1-yl)-3-(trifluoromethyl)-1H-pyrazolo[3,4-b]pyridin-1-yl}-3-(ethylamino)benzamide] | 0.19 | 0.21 | – | –
13 | CC(C)c1nn(-c2ccc(C(N)=O)c(N[C@H]3CC[C@H](O)CC3)c2)c2nccc(-c3cnc4c(ccn4C)c3)c12 [Example 14, 2-(Trans-4-hydroxycyclohexylamino)-4-{3-isopropyl-4-(1-methyl-1H-pyrrolo[2,3-b]pyridin-5-yl)-1H-pyrazolo[3,4-b]pyridin-1-yl}benzamide] | 0.69 | 0.18 | – | –
14 | CC(=O)N[C@H]1CC[C@H](Nc2cc(-n3cc(C)c4c(-c5cnc6ccccc6c5)ccnc43)ccc2C(N)=O)CC1 [Example 62, 2-(Trans-4-acetamidocyclohexylamino)-4-{3-methyl-4-(quinolin-3-yl)-1H-pyrrolo[2,3-b]pyridin-1-yl}benzamide] | 0.61 | 0.21 | – | –
15 | CC(C)c1nn(-c2ccc(C(N)=O)cc2Cl)c2nccc(-n3cnc(-c4cnn(C)c4)c3)c12 [Example 99, 3-Chloro-4-{3-isopropyl-4-(4-(1-methyl-1H-pyrazol-4-yl)-1H-imidazol-1-yl)-1H-pyrazolo[3,4-b]pyridin-1-yl}benzamide] | 0.52 | 0.69 | – | –
16 | CC(C)c1nn(-c2ccc(C(N)=O)cc2Cl)c2nccc(-n3cnc(-c4ccc(C(=O)N(C)C)cc4)c3)c12 [Example 151, 4-{1-(1-(4-Carbamoyl-2-chlorophenyl)-3-isopropyl-1H-pyrazolo[3,4-b]pyridin-4-yl)-1H-imidazol-4-yl}-N,N-dimethylbenzamide] | 0.66 | 1.54 | – | –
17 | COc1ccc(-c2ccnc3c2c(C(C)C)nn3-c2ccc(C(N)=O)c(N[C@H]3CC[C@H](O)CC3)c2)cn1 [Example 18, 2-(Trans-4-hydroxycyclohexylamino)-4-{3-isopropyl-4-(6-methoxypyridin-3-yl)-1H-pyrazolo[3,4-b]pyridin-1-yl}benzamide] | – | 0.59 | – | –
18 | COc1ccc2c(c1)cc(C)n2-c1ccc(C(N)=O)c(Nc2ccccc2)c1 [Comparative Example 5, reference compound] | – | – | – | > 10
19 | CC(C)c1nn(-c2ccc(C(N)=O)c(N[C@H]3CC[C@H](O)CC3)c2)c2nccc(-c3cnc4ccccc4c3)c12 [Example 6, 2-(Trans-4-hydroxycyclohexylamino)-4-{3-isopropyl-4-(quinolin-3-yl)-1H-pyrazolo[3,4-b]pyridin-1-yl}benzamide] | – | 0.03 | – | –
20 | COc1cc2ccn(-c3ccc(C#N)c(Nc4ccccc4)c3)c2cc1OC [Comparative Example 3, reference compound] | – | > 10 | – | –
21 | COc1cc2ccn(-c3ccc(C(N)=O)c(Nc4ccccc4)c3)c2cc1OC [Comparative Example 4, reference compound] | – | – | – | > 10
22 | Cc1cn(-c2ccc(C(N)=O)c(N[C@H]3CC[C@H](N)CC3)c2)c2nccc(-c3cnc4ccccc4c3)c12 [Example 61, 2-(Trans-4-aminocyclohexylamino)-4-{3-methyl-4-(quinolin-3-yl)-1H-pyrrolo[2,3-b]pyridin-1-yl}benzamide] | – | 0.36 | – | –
23 | Cc1cn(-c2ccc(C(N)=O)c(S[C@H]3CC[C@H](O)CC3)c2)c2nccc(-c3cnc4ccccc4c3)c12 [Example 67, 2-(Trans-4-hydroxycyclohexylthio)-4-{3-methyl-4-(quinolin-3-yl)-1H-pyrrolo[2,3-b]pyridin-1-yl}benzamide] | – | 0.51 | – | –
